Laboratory results: patent publication US20110152326A1, “SUBSTITUTED ARYLOXOETHYL CYCLOPROPANECARBOXAMIDE COMPOUNDS AS VR1 RECEPTOR ANTAGONISTS” (priority 2005, published 2011)
pIC50: −log10 of the molar value.

Molecular target: T1, human VR1 receptors (Homo sapiens, UniProt Q8NER1)
T1 construct: host or cells: cells that highly express human VR1 receptors
Test: Human VR1 antagonist assay, Ca2+ imaging, capsaicin stimulation
Assay type: cell-based
Conditions: human VR1 expressing cells; concentration required to reduce capsaicin-evoked Ca2+ influx by 50%; capsaicin 300 nM; read-out: hVR1 IC50
From the text: VR1 antagonistic activity can be determined by the Ca^2+ imaging assay using human VR1 highly expressing cells. The cells that highly express human VR1 receptors are obtainable from several different conventional methods. The one standard method is cloning from human Dorsal Root Ganglion (DRG) or kidney according to the methods such as described in the journal article; Nature, 389, pp 816-824, 1997. Alternatively VR1 receptors highly expressing human keratinocytes are also known and published in the journal article (Biochemical and Biophysical Research Communications, 291, pp 124-129, 2002). […] Further more, the method to up regulate human VR1 gene, which is usually a silent gene or don't produce detectable level of VR1 receptors, is also available to obtain propriety cells. Such genetic modification method was described in detail; Nat. Biotechnol., 19, pp 440-445, 2001.
The cells that express human VR1 receptors were maintained in culture flask at 37° C. in an environment containing 5% CO2 until use in the assay. The intracellular Ca^2+ imaging assay to determine VR1 antagonistic activities were done by following procedures.
The culture medium was removed from the flask and fura-2/AM fluorescent calcium indicator was added to the flask at a concentration of 5 μM in the medium. The flask was placed in CO2 incubator and incubated for 1 hour. Then the cells expressing the human VR1 receptors were detached from the flask follow by washing with phosphate buffer saline, PBS(−) and re-suspended in assay buffer. The 80 μl of aliquot of cell suspension (3.75×10^5 cells/ml) was added to the assay plate and the cells were spun down by centrifuge (950 rpm, 20° C., 3 minutes).
The capsaicin-induced changes in the intracellular calcium concentration were monitored using FDSS 6000 (Hamamatsu Photonics, Japan), a fluorometric imaging system. The cell suspension in Krebs-Ringer HEPES (KRH) buffer (115 mM NaCl, 5.4 mM KCl, 1 mM MgSO4, 1.8 mM CaCl2, 11 mM D-Glucose, 25 mM HEPES, 0.96 mM Na2HPO4, pH 7.3) were pre-incubated with varying concentrations of the test compounds or KRH buffer (buffer control) for 15 minutes at room temperature under the dark condition. Then capsaicin solution, which gives 300 nM in assay mixture, was automatically added to the assay plate by the FDSS 6000.
The monitoring of the changes in the fluorescence signals (λex=340 nm/380 nm, λem=510-520 nm) was initiated at 1 minute prior to the addition of capsaicin solution or acidic buffer and continued for 5 minute.

T1 sequence (Q8NER1 whole entry): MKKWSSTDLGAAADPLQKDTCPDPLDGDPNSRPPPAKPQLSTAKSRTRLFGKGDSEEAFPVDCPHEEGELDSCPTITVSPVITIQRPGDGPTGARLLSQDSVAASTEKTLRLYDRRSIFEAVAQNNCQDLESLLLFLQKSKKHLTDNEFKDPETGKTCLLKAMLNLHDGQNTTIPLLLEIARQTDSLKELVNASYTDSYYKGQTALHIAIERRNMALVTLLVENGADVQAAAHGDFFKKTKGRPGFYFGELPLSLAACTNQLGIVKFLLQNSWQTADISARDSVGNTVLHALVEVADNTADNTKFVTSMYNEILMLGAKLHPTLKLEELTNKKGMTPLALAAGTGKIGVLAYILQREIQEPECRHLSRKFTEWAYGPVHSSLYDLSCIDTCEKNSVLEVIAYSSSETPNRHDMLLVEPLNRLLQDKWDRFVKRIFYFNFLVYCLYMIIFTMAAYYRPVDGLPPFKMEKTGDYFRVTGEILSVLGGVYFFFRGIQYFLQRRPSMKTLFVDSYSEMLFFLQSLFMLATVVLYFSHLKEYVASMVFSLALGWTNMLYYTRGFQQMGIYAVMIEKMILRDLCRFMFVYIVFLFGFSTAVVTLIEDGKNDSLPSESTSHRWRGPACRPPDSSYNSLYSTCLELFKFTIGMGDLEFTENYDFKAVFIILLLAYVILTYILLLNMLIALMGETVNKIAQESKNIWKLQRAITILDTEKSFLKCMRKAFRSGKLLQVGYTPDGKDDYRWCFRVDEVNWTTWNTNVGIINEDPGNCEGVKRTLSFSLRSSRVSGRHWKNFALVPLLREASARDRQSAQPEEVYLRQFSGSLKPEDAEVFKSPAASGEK

Structure (SMILES)	pIC50
Cn1ccnc1C(=O)CNC(=O)C1CC1(C)c1ccc(C(C)(C)C(F)(F)F)cc1 (stereo not shown) [Example 11, 2-Methyl-N-[2-(1-Methyl-1H-Imidazol-2-yl)-2-Oxoethyl]-2-[4-(2,2,2-Trifluoro-1,1-Dimethylethyl)Phenyl]Cyclopropanecarboxamide]	6.35
COc1ccc(C)c(C(=O)CNC(=O)C2CC2c2ccc(C(C)(C)C)cc2)c1 (stereo not shown) [Example 2, 2-(4-Tert-Butylphenyl)-N-[2-(5-Methoxy-2-Methylphenyl)-2-Oxoethyl]Cyclopropanecarboxamide]	6.00
Cn1ccnc1C(=O)CNC(=O)C1CC1c1ccc(C(C)(C)C)c(F)c1 (stereo not shown) [Example 10, 2-(4-Tert-Butyl-3-Fluorophenyl)-N-[2-(1-Methyl-1H-Imidazol-2-yl)-2-Oxoethyl]Cyclopropanecarboxamide]	6.62
CCn1ccnc1C(=O)CNC(=O)C1CC1c1cc(F)c(C(C)(C)C(F)(F)F)c(F)c1 (stereo not shown) [Example 13, 2-[3,5-Difluoro-4-(2,2,2-Trifluoro-1,1-Dimethylethyl)Phenyl]-N-[2-(1-Ethyl-1H-Imidazol-2-yl)-2-Oxoethyl]Cyclopropanecarboxamide]	7.16
Cc1ccc(O)cc1C(=O)CNC(=O)C1CC1c1ccc(C(C)(C)C)cc1 (stereo not shown) [Example 3, 2-(4-Tert-Butylphenyl)-N-[2-(5-Hydroxy-2-Methylphenyl)-2-Oxoethyl]Cyclopropanecarboxamide]	6.15

Further compounds by rising pIC50, results first:

pIC50	Structure (SMILES)
6.47	CCn1ccnc1C(=O)CNC(=O)C1CC1(C)c1ccc(C(C)(C)C(F)(F)F)cc1 (stereo not shown) [Example 12, N-[2-(1-Ethyl-1H-Imidazol-2-yl)-2-Oxoethyl]-2-Methyl-2-[4-(2,2,2-Trifluoro-1,1-Dimethylethyl)Phenyl]Cyclopropanecarboxamide]
6.51	Cc1cccnc1C(=O)CNC(=O)C1C(c2ccc(C(C)(C)C)cc2)C1(F)F (stereo not shown) [Example 9, 3-(4-Tert-Butylphenyl)-2,2-Difluoro-N-[2-(3-Methylpyridin-2-yl)-2-Oxoethyl]Cyclopropanecarboxamide]
6.87	Cc1cccnc1C(=O)CNC(=O)C1CC1(C)c1ccc(C(C)(C)C)cc1 (stereo not shown) [Example 6, 2-(4-Tert-Butylphenyl)-2-Methyl-N-[2-(3-Methylpyridin-2-yl)-2-Oxoethyl]Cyclopropanecarboxamide]
6.95	Cc1cccnc1C(=O)CNC(=O)C1CC1c1ccc(C(C)(C)C(F)(F)F)cc1 (stereo not shown) [Example 5, N-[2-(3-Methylpyridin-2-yl)-2-Oxoethyl]-2-[4-(2,2,2-Trifluoro-1,1-Dimethylethyl)Phenyl]Cyclopropanecarboxamide]
6.99	Cc1cccnc1C(=O)CNC(=O)C1CC1c1ccc(C(C)(C)C)cc1 (stereo not shown) [Example 1, 2-(4-Tert-Butylphenyl)-N-[2-(3-Methylpyridin-2-yl)-2-Oxoethyl]Cyclopropanecarboxamide]
6.99	CC(C)(C)c1ccc(C2CC2C(=O)NCC(=O)c2ncccc2C(F)(F)F)cc1F (stereo not shown) [Example 8, 2-(4-Tert-Butyl-3-Fluorophenyl)-N-[2-(3-Trifluoromethylpyridin-2-yl)-2-Oxoethyl]Cyclopropanecarboxamide]
7.00	Cc1cccnc1C(=O)CNC(=O)C1CC1c1ccc(C(C)(C)C)c(F)c1 (stereo not shown) [Example 4, 2-(4-Tert-Butyl-3-Fluorophenyl)-N-[2-(3-Methylpyridin-2-yl)-2-Oxoethyl]Cyclopropanecarboxamide]
7.04	Cc1cccnc1C(=O)CNC(=O)C1CC1c1ccc(C(C)(C)C)c(Cl)c1 (stereo not shown) [Example 7, 2-(4-Tert-Butyl-3-Chlorophenyl)-N-[2-(3-Methylpyridin-2-yl)-2-Oxoethyl]Cyclopropanecarboxamide]
